Experiments:
[1] = test system: Lactobacillus delbrueckii subsp. bulgaricus; assay: Test Example 8: organic acid concentration in fermentate at completion of fermentation, inosinic acid medium; type: cell-based; settings: 1 mM additive, 1 mM inosinic acid medium
Protocol: The strains shown in Tables 13 and 14 were precultured in the preculture medium and then used. The activation medium used was a 10 mass % reduced skim milk medium containing 0.1 mass % yeast extract, sterilized at 121° C. for 7 minutes. Here, the 10 mass % reduced skim milk medium is a 10 mass % aqueous solution of skim milk powder (fat 1 mass %, protein 34 mass %, lactose 54 mass %, ash 8 mass %, non-fat milk solid 96 mass %) (manufactured by Meiji Co., Ltd.) (in the above medium, lactose 5.4 mass %, non-fat milk solid 9.6 mass %). Frozen bacteria were added to the above-mentioned activation medium in an amount of 0.1 mass % (with respect to the amount of the activation medium) and statically cultured at 37° C. for 16 hours to obtain an activation solution. An aliquot of 0.1 mass % of the activation solution obtained (with respect to the amount of activation medium) was added to another activation medium, and the mixture was allowed to stand at 37° C. for 16 hours to obtain a lactic acid bacterial starter. Then, fermentation was carried out using a fermentation medium as raw material milk. The fermentation medium was prepared by adding inosinic acid to the 10 mass % reduced skim milk medium so as to give a final concentration of 1 mM, and then sterilizing the mixture at 95° C., and was used. […] The pH of the fermentation medium was about 6.4. The lactic acid bacterial starter of each strain obtained above was inoculated into the fermentation medium in an amount of 2.5 mass % (with respect to the amount of the fermentation medium), statically cultured at 40° C., and fermented. The fermentation time was the time required for the medium to reach pH 4.6. The pH value was measured using a commercially available pH meter.

L. rhamnosus = assay: Test Example 5: organic acid concentrations after fermentation; type: cell-based, Lactobacillus rhamnosus; settings: 1 mM added
Protocol: (§1) The measurement of the organic acid concentration after the completion of fermentation was carried out as follows. An aliquot of 0.4 g of the fermentate obtained (fermented milk) was diluted by 2-fold with pure water, 20 μL of Carrez's Reagent I (53.5% (w/v) zinc sulfate) was added thereto and the mixture was vortexed, and 20 μl of Carrez's Reagent II (17.2% (w/v) potassium ferrocyanide) was added thereto and the mixture was vortexed. The resulting mixture was centrifuged at 4° C., 20620 g for 10 minutes, and the supernatant was filtered through a 0.22 μm filter and the filtrate was analyzed under the conditions shown in Table 2. [table] The measurement of the organic acid concentration after the completion of fermentation by L. rhamnosus and L. salivarius in Test Example 3 or 4 was carried out in the same manner as in Test Example 2-1. The addition of malic acid or fumaric acid promoted production of succinic acid by L. rhamnosus and L. salivarius.

L. salivarius = assay: as above; type: cell-based, Lactobacillus salivarius; settings: 1 mM added
Protocol: as §1

[2] = No addition of L. delbrueckii subsp. bulgaricus

| SMILES | Concentration of fumaric acid [1, 2] | Concentration of malic acid [1, 2] | Concentration of succinic acid [1, 2] | Concentration of succinic acid in fermentate at completion of fermentation (pH 4.6) ([1]; strain 0LL1171) | Concentration of succinic acid in fermentate at completion of fermentation (pH 4.6) ([1]; strain 2038) | Concentration of succinic acid in fermentate at completion of fermentation (pH 4.6) ([1]; strain OLL1073R-1) | Concentration of succinic acid in fermentate at completion of fermentation (pH 4.6) ([1]; strain OLL1247) | Concentration of succinic acid in fermentate at completion of fermentation (pH 4.6) ([1]; strain OLL1255) | Concentration of succinic acid in fermentate at completion of fermentation (pH 4.6) ([1]; strain OLL205013) | Concentration of succinic acid in fermentate at completion of fermentation (pH 4.6) ([1]; strain P1902901) | Concentration of succinic acid (L. rhamnosus) | Concentration of fumaric acid (L. salivarius) | Concentration of malic acid (L. salivarius) | Concentration of succinic acid (L. salivarius) |
| --- | --- | --- | --- | --- | --- | --- | --- | --- | --- | --- | --- | --- | --- | --- |
| O=C(O)/C=C/C(=O)O [Fumaric acid, fumaric acid] | 1.12 mM | 0.13 mM | 0.06 mM | 1.43 mM | 1.43 mM | 1.52 mM | 1.57 mM | 1.49 mM | 1.60 mM | 1.40 mM | 1.39 mM | 0.62 mM | 0.51 mM | 0.29 mM |
| O=C(O)CC(O)C(=O)O (centres unmarked) [Malic acid, malic acid] | – | 1.06 mM | 0.06 mM | 1.40 mM | 1.40 mM | 1.50 mM | 1.53 mM | 1.46 mM | 1.53 mM | 1.38 mM | – | 0.35 mM | 0.75 mM | 0.28 mM |

From patent US20230052298A1, “LACTIC ACID BACTERIUM FERMENTATION PROMOTER” (MEIJI CO., LTD., priority 2019, published 2023)
